This series is described as follows: Metabolic stability in rat liver microsomes assessed as half life. The class given is ADME, Microsome. In general terms: Microsomes from liver hold many membrane-bound enzymes, among them those of drug oxidation.

Molecules are shown by their SMILES.

Broadly, the half-life is the time needed for the level to fall by half in the phase considered. Regarding `CNc1nc(NCc2ccc(NC(=O)c3ccc(F)cc3)cc2)c2cc(C)ccc2n1`, the half-life came to 6 min.

As for `Cc1ccc2c(NCc3ccc(NC(=O)c4ccc(F)cc4)cc3)nc(N3CCCCC3)nc2c1`, the half-life worked out at 3 min.

Consider `CC(=O)c1ccc2c(NCc3ccc(NC(=O)c4ccc(F)cc4)cc3)nc(N(C)C)nc2c1`, for which the half-life came to 2 min.

Turning to `CNc1nc(NCc2ccc(NC(=O)c3ccc(C)cc3)cc2)c2ccccc2n1`, the half-life came to 16 min.

As to `Cc1ccc2c(NCc3ccc(NC(=O)c4ccc(F)cc4)cc3)nc(N3CCN(C)CC3)nc2c1`, the half-life amounted to 3 min.

For `Cc1ccc2c(NCc3ccc(NC(=O)c4ccc(F)cc4)cc3)nc(N(C)C)nc2c1`, the half-life turned out to be 12 min.

Regarding `Cc1ccc2c(NCc3ccc(NC(=O)c4ccc(F)cc4)cc3)nc(N3CCNCC3)nc2c1`, the half-life turned out to be 5 min.

Take `CNc1nc(NCc2ccc(NC(=O)c3ccc(Cl)cc3)cc2)c2cc(C)ccc2n1`: the half-life worked out at 6 min.

In the case of `Cc1ccc2c(NCc3ccc(NC(=O)c4ccc(F)cc4)cc3)nc(N3CCOCC3)nc2c1`, the half-life is 6 min.

On to `Cc1ccc2c(NCc3ccc(NC(=O)c4ccc(F)cc4)cc3)nc(N3CCC3)nc2c1`, for which the half-life was 7 min.

Regarding `Cc1ccc2c(NCc3ccc(NC(=O)c4ccc(F)cc4)cc3)nc(N3CCCC3)nc2c1`, the half-life was found to be 2 min.

Turning to `CN(C)c1nc(NCc2ccc(NC(=O)c3ccc(F)cc3)cc2)c2ccc(CO)cc2n1`, the half-life came out at 22 min.

`CN(C)Cc1ccc2c(NCc3ccc(NC(=O)c4ccc(F)cc4)cc3)nc(N(C)C)nc2c1`: the half-life stood at 3 min.

Consider `CNc1nc(NCc2ccc(NC(=O)c3ccc(F)cc3)cc2)c2ccccc2n1`, for which the half-life was found to be 21 min.

With `CNc1nc(NCc2ccc(NC(=O)c3ccc(Cl)nc3)cc2)c2ccccc2n1`, the half-life was found to be 17 min.

On to `C=Cc1ccc2c(NCc3ccc(NC(=O)c4ccc(F)cc4)cc3)nc(N(C)C)nc2c1`, for which the half-life stood at 6 min.

On to `CCc1ccc2c(NCc3ccc(NC(=O)c4ccc(F)cc4)cc3)nc(N(C)C)nc2c1`, for which the half-life was 6 min.

Take `CNc1nc(NCc2ccc(NC(=O)c3ccc(Cl)nc3)cc2)c2cc(C)ccc2n1`: the half-life came to 13 min.

`CNc1nc(NCc2ccc(NC(=O)c3ccc(Cl)cc3)cc2)c2c(C)cccc2n1`: the half-life was 12 min.

Take `CNc1nc(NCc2ccc(NC(=O)c3ccc(Cl)nc3)cc2)c2c(C)cccc2n1`: the half-life was 2 min.

Regarding `Cc1ccc2c(NCc3ccc(NC(=O)c4ccc(F)cc4)cc3)nc(N3CCNC(C)(C)C3)nc2c1`, the half-life was found to be 3 min.

Turning to `CNc1nc(NCc2ccc(NC(=O)c3ccc(Cl)cc3)cc2)c2cccc(C)c2n1`, the half-life stood at 11 min.

`Cc1ccc2c(NCc3ccc(NC(=O)c4ccc(F)cc4)cc3)nc(N3CCN[C@H](C)C3)nc2c1`: the half-life came out at 4 min.

As to `CNc1nc(NCc2ccc(NC(=O)c3ccc(C(F)(F)F)cc3)cc2)c2ccccc2n1`, the half-life was 30 min.

Turning to `CNc1nc(NCc2ccc(NC(=O)c3cccc(Cl)c3)cc2)c2ccccc2n1`, the half-life was 15 min.

Regarding `CNc1nc(NCc2ccc(NC(=O)c3ccc(F)cc3)cc2)c2cccc(C)c2n1`, the half-life is 10 min.

Take `CCCNc1nc(NCc2ccc(NC(=O)c3ccc(F)cc3)cc2)c2ccc(C)cc2n1`: the half-life worked out at 6 min.

Take `CNc1nc(NCc2ccc(NC(=O)c3ccc(Cl)cc3)cc2)c2ccccc2n1`: the half-life was 30 min.

As for `CNc1nc(NCc2ccc(NC(=O)c3ccc(C#N)cc3)cc2)c2ccccc2n1`, the half-life came to 10 min.

With `CNc1nc(NCc2ccc(NC(=O)c3ccc(Cl)nc3)cc2)c2cccc(C)c2n1`, the half-life came out at 22 min.

Take `CNc1nc(NCc2ccc(NC(=O)c3ccc(Cl)cc3)cc2)c2ccc(C)cc2n1`: the half-life was found to be 18 min.

Consider `CNc1nc(NCc2ccc(NC(=O)c3ccc(-c4ccccc4)cc3)cc2)c2ccccc2n1`, for which the half-life was 16 min.

For `CNc1nc(NCc2ccc(NC(=O)c3ccc(F)cc3)cc2)c2ccc(C)cc2n1`, the half-life is over 30 min.

In the case of `CNc1nc(NCc2ccc(NC(=O)c3ccc(Cl)nc3)cc2)c2ccc(C)cc2n1`, the half-life came to 8 min.

Take `CN(C)c1nc(NCc2ccc(NC(=O)c3ccc(F)cc3)cc2)c2ccc(C#N)cc2n1`: the half-life worked out at 11 min.

As for `CN(C)c1nc(NCc2ccc(NC(=O)c3ccc(F)cc3)cc2)c2ccc(C=O)cc2n1`, the half-life came out at 3 min.

`CNc1nc(NCc2ccc(NC(=O)c3ccc(F)cc3)cc2)c2c(C)cccc2n1`: the half-life stood at 15 min.

For the compound `CC(O)c1ccc2c(NCc3ccc(NC(=O)c4ccc(F)cc4)cc3)nc(N(C)C)nc2c1` (racemic), the half-life is 6 min.
